The target in experiment [1] is hPK, M2 (PKM2) (Homo sapiens, UniProt P14618). As to the kind of experiment: luminescent pyruvate kinase-luciferase coupled assay. Format: biochemical. As to conditions: for activation at 57 µM: read-out: hPK, M2 Max. Res, % activation at 57 μM of compound, luciferase coupled assay; for potency (in words): PKM2 activation, SAR statement.
Experiment [2] deals with PKM2 (Homo sapiens, UniProt P14618). As to the kind of experiment: steady-state kinetics of PEP and ADP in the PK-LDH coupled assay. The class given is biochemical.
PKM2, sequence (P14618 whole entry): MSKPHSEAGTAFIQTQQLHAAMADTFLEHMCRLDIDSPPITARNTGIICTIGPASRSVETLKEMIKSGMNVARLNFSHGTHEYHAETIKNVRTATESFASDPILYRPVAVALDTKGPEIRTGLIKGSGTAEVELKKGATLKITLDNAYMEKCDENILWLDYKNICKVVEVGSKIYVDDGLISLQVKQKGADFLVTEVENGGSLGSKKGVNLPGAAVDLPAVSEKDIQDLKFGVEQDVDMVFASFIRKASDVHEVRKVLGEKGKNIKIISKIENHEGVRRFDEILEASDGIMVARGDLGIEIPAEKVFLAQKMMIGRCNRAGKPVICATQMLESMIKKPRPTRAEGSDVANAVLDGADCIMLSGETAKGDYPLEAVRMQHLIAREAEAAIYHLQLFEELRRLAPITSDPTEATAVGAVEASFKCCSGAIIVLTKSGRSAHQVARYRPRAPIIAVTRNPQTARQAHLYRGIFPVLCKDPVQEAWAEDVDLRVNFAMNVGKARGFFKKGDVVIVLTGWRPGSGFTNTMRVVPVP

hPK, M2 (PKM2), sequence (P14618 whole entry): as above

For the compound `Cn1c2ccsc2c2ncn(Cc3ccccc3F)c(=O)c21` [compound 23], in experiment [1], the activation at 57 µM is under 80%.

Consider `Cc1cc2[nH]c3c(=O)n(Cc4ccccc4F)ncc3c2s1` [compound 19], for which the activation at 57 µM in experiment [1] amounted to 33%. On to `CCCCCn1ncc2c3sc(C)cc3n(C)c2c1=O` [compound 25], for which the “potency (in words)” value in experiment [1] is on record as “marked loss of potency”.

Regarding `Cc1cc2c(s1)c1cnn(-c3ccccc3)c(=O)c1n2C` [compound 24], the “potency (in words)” value in experiment [1] was “marked loss of potency”. On to `Cc1cc2c(s1)c1cnn(Cc3ccccc3F)c(=O)c1n2C` [compound 1], for which, in experiment [2] (in the presence of activator versus absence (KM ~ 1.5 mM)), the “decrease of KM for PEP” value was 10 fold. The Vmax in experiment [2] (with or without activator) amounted to 255 pmols/min.

(Values after article PMC2874658 (Bioorganic & medicinal chemistry letters, 2010).)
